IC50 and EC50 data for 15 compounds are collected here from patent US11401278B2, “Macrocyclic indole derivatives” (The Broad Institute, Inc., priority 2017, dated 2022).

Data set [1] deals with MCL-1 (Homo sapiens (Human), UniProt Q07820, K194A/K197A/R201A). As to the kind of experiment: Protein-protein interaction assay MCL-1/Noxa BH3 peptide (MCL-1 assay, TR-FRET). The class given is binding. Conditions: MBP-MCL-1 / Noxa BH3 peptide, median. In short, it runs like this: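 MBP-fused MCL-1 (aa 173-329, 1 nM) was pre-incubated with compound for 10 min at 22° C, then biotinylated Noxa BH3 peptide (1 nM) was added with anti-MBP-Eu cryptate and streptavidin-XL665. Incubation was 1 h at 22° C, then overnight at 4° C, in Tris pH 7 buffer. The 665/620 nm ratio over 11 concentrations (0.1 nM-20 μM) gave IC50 by 4-parameter fit.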
Chain of MCL-1 (Q07820 whole entry K194A/K197A/R201A, looked up, the tested form may be a part): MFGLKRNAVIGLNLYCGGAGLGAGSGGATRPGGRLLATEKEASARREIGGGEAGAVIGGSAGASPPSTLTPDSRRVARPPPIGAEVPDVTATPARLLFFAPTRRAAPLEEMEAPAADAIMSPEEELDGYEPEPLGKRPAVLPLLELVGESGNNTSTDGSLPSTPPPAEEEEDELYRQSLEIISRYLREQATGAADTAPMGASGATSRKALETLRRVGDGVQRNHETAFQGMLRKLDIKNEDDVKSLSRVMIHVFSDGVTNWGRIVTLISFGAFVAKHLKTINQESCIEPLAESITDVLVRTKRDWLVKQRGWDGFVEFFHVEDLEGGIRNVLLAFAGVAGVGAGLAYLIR
A general note: TR-FRET usually uses a lanthanide donor and a delayed reading to cut background.

Data set [2] concerns SUDHL10. As to the kind of experiment: Induction of caspase-3/7 activity (Assay 4), SUDHL10. The class given is cell-based. Conditions: caspase-3/7 induction, median. In short, it runs like this:
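Caspase-3/7 activity measured by Caspase-Glo 3/7 luminescence in DLBCL cells after 3 h compound treatment at 37 °C. Medium-only background subtracted. EC50 fitted with C0 fixed at 1 and top set to the reference compound's plateau/max induction.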

The test system of data set [3] is SUDHL10. The experiment in a line: Induction of cytotoxicity (Assay 6), SUDHL10. Conditions: read-out: Cytotox SUDHL10 [M] (median) IC50, CellTiter-Glo, 5 hours, SUDHL10. For orientation: In ATP-based viability assays light output follows the ATP content of the culture.

Counter-ions that a name gives are not always drawn. Like-named read-outs stand apart in the source and are kept apart here.

What is called IC50 is the concentration that gives 50% inhibition. Usually EC50 stands for the concentration giving half of the maximal effect. High values mean a need for much substance, low ones an effect from little substance. As to `Cc1c2c(nn1C)CN(CCN1CCOCC1)S(=O)(=O)CCCn1c(C(=O)O)c(CCCOc3cccc4ccccc34)c3cccc-2c31` (single isomer, unassigned; enantiomer 2) [Example 3, 2,3-Dimethyl-14-[2-(morpholin-4-yl)ethyl]-7-{3-[(naphthalen-1-yl)oxy]propyl}-13,13-dioxo-10,11,12,13,14,15-hexahydro-2H-13λ^6-pyrazolo[3′,4′:4,5][1,2,8]thiadiazacycloundecino-[6,7,8-hi]indole-8-carboxylic acid-N-ethylethanamine salt (Enantiomer 2)], the IC50 in data set [1] is 270 nM; in data set [3], more than 3.3e-05 M. Further, the half-maximal effective concentration (EC50) in data set [2] (3 hours) was more than 33000 nM.
In the same order, the values of `Cc1c2c(nn1C)C(CCN1CCOCC1)N(C)S(=O)(=O)CCCn1c(C(=O)O)c(CCCOc3cccc4ccccc34)c3cccc-2c31` (single isomer, unassigned; enantiomer 1) [Example 45, 2,3,14-trimethyl-15-[2-(morpholin-4-yl)ethyl]-7-{3-[(naphthalen-1-yl)oxy]propyl}-13,13-dioxo-10,11,12,13,14,15-hexahydro-2H-13lambda^6-pyrazolo[3′,4′:4,5][1,2,8]thiadiazacycloundecino[6,7,8-hi]indole-8-carboxylic acid N-ethylethanamine Salt (Enantiomer 1)] are 33 nM, 1.7e-05 M and 23000 nM.
Regarding `CCc1c2c(nn1C)C(CCC1CCOCC1)N(C)S(=O)(=O)CCCn1c(C(=O)O)c(CCCOc3cccc4cc(F)ccc34)c3ccc(Cl)c-2c31` (single isomer, unassigned; enantiomer 2) [Example 62, (−)-4-chloro-3-ethyl-7-{3-[(6-fluoronaphthalen-1-yl)oxy]propyl}-2,14-dimethyl-15-[2-(oxan-4-yl)ethyl]-13,13-dioxo-10,11,12,13,14,15-hexahydro-2H-13lambda^6-pyrazolo[3′,4′:4,5][1,2,8]thiadiazacycloundecino[6,7,8-hi]indole-8-carboxylic acid (Enantiomer 2)], the IC50 amounted to 110 nM in data set [1] and 9.7e-06 M in data set [3]. A half-maximal response in data set [2] (3 hours) (EC50) required 6800 nM.
`CCc1c2c(nn1C)CN(C)S(=O)(=O)CCCn1c(C(=O)O)c(CCCOc3cccc4c3CCC4)c3ccc(Cl)c-2c31` [Example 21, (rac)-13-Chloro-1-(3-((2,3-dihydro-1H-inden-4-yl)oxy)propyl)-12-ethyl-8,11-dimethyl-5,6,9,11-tetrahydro-4H,8H-pyrazolo[3′,4′:4,5][1]thia[2,8]diazacycloundecino[6,7,8-hi]indole-2-carboxylic acid 7,7-dioxide]: the IC50 in data set [1] was 1.7 nM; in data set [3] (Homo sapiens, SU-DHL10, 5 h), 1.8e-06 M. In data set [2] (Homo sapiens, SU-DHL10, 3 h), this compound yielded an EC50 of 1400 nM.
As for `Cc1c2c(nn1C)CN(C)S(=O)(=O)CCCn1c(C(=O)O)c(CCCOc3cccc4ccccc34)c3ccc(Cl)c-2c31` (racemic) [Example 4, (rac)-4-Chloro-2,3,14-trimethyl-7-{3-[(naphthalen-1-yl)oxy]propyl}-13,13-dioxo-10,11,12,13,14,15-hexahydro-2H-13λ^6-pyrazolo[3′,4′:4,5][1,2,8]thiadiazacycloundecino-[6,7,8-hi]indole-8-carboxylic acid], the IC50 was 1.2 nM in data set [1] and 1.2e-06 M in data set [3]. Also, in data set [2] (3 hours), the midpoint of the response, the EC50, lay at 1600 nM.
As to `CCc1c2c(nn1C)CN(CCCN1CCCC1)S(=O)(=O)CCCn1c(C(=O)O)c(CCCOc3cccc4ccccc34)c3cccc-2c31` (racemic) [Example 16, (rac)-12-Ethyl-11-methyl-1-(3-(naphthalen-1-yloxy)propyl)-8-(3-(pyrrolidin-1-yl)propyl)-5,6,9,11-tetrahydro-4H,8H-pyrazolo[3′,4′:4,5][1]thia[2,8]diazacycloundecino[6,7,8-hi]indole-2-carboxylic acid 7,7-dioxide], the 50% inhibitory concentration (IC50) in data set [1] is 5.7 nM; in data set [3] (Homo sapiens, SU-DHL10, 5 h), more than 3.3e-05 M. The EC50 in data set [2] (Homo sapiens, SU-DHL10, 3 h) is more than 33000 nM.
In the same order, the values of `CCc1c2c(nn1C)CN(C)S(=O)(=O)CCCn1c(C(=O)O)c(CCCOc3ccc(F)c4ccccc34)c3ccc(F)c-2c31` (racemic) [Example 35, (rac)-12-Ethyl-13-fluoro-1-(34(4-fluoronaphthalen-1-yl)oxy)propyl)-8,11-dimethyl-5,6,9,11-tetrahydro-4H,8H-pyrazolo[3′,4′:4,5][1]thia[2,8]diazacycloundecino[6,7,8-hi]indole-2-carboxylic acid 7,7-dioxide] are 3.5 nM, 2.7e-06 M and 2600 nM.
In the same order, the values of `Cc1c2c(nn1C)CNS(=O)(=O)CCCn1c(C(=O)O)c(CCCOc3cccc4cc(F)ccc34)c3ccc(Cl)c-2c31` (racemic) [Example 50, (rac)-4-chloro-7-{3-[(6-fluoro-1-naphthyl)oxy]propyl}-2,3-dimethyl-11,12,14,15-tetrahydro-2H,10H-pyrazolo[3′,4′:4,5][1,2,8]thiadiazacycloundecino[6,7,8-hi]indole-8-carboxylic acid 13,13-dioxide] are 0.74 nM, 3.8e-06 M and 2800 nM.
`Cc1c2c(nn1C)CN(C)S(=O)(=O)CCCn1c(C(=O)O)c(CCCOc3cccc4ccccc34)c3ccc(Cl)c-2c31` (single isomer, unassigned; enantiomer 1) [Example 5, 4-Chloro-2,3,14-trimethyl-7-{3-[(naphthalen-1-yl)oxy]propyl}-13,13-dioxo-10,11,12,13,14,15-hexahydro-2H-13λ^6-pyrazolo[3′,4′:4,5][1,2,8]thiadiazacycloundecino[6,7,8-hi]indole-8-carboxylic acid-N-ethylethanamine salt (Enantiomer 1)]: the IC50 in data set [1] was 0.52 nM; in data set [3], 7.1e-07 M. In addition, the EC50 in data set [2] (3 hours) came out at 590 nM.
On to `CCc1c2c(nn1C)C(C)N(C)S(=O)(=O)CCCn1c(C(=O)O)c(CCCOc3cccc4ccccc34)c3cccc-2c31` (racemic) [Example 18, 12-Ethyl-8,9,11-trimethyl-1-(3-(naphthalen-1-yloxy)propyl)-5,6,9,11-tetrahydro-4H,8H-pyrazolo[3′,4′:4,5][1]thia[2,8]diazacycloundecino[6,7,8-hi]indole-2-carboxylic acid 7,7-dioxide (Mixture of Stereoisomers)], for which the IC50 in data set [1] was 7.8 nM; in data set [3] (Homo sapiens, SU-DHL10, 5 h), 9.2e-06 M. In addition, the concentration giving a half-maximal response (EC50) in data set [2] (Homo sapiens, SU-DHL10, 3 h) amounted to 8400 nM.
Turning to `CCc1c2c(nn1C)CN(C)S(=O)(=O)CCCn1c(C(=O)O)c(CCCOc3ccc(F)c4ccccc34)c3ccc(Cl)c-2c31` [Example 24, (rac)-13-Chloro-12-ethyl-1-(34(4-fluoronaphthalen-1-yl)oxy)propyl)-8,11-dimethyl-4,5,6,8,9,11-hexahydropyrazolo[3′,4′:4,5][1,2,8]thiadiazacycloundecino[6,7,8-hi]indole-2-carboxylic acid 7,7-dioxide], the IC50 in data set [1] was 3.4 nM; in data set [3] (Homo sapiens, SU-DHL10, 5 h), 2.4e-06 M. Moreover, the EC50 in data set [2] (Homo sapiens, SU-DHL10, 3 h) came out at 2300 nM.
In the same order, the values of `Cc1cc(OCCCc2c(C(=O)O)n3c4c(c(F)ccc24)-c2c(nn(C)c2C)CN(C)S(=O)(=O)CCC3)cc(C)c1Cl` (racemic) [Example 28, (rac)-1-(3-(4-Chloro-3,5-dimethylphenoxy)propyl)-13-fluoro-8,11,12-trimethyl-5,6,9,11-tetrahydro-4H,8H-pyrazolo[3′,4′:4,5][1]thia[2,8]diazacycloundecino[6,7,8-hi]indole-2-carboxylic acid 7,7-dioxide] are 4 nM, 8e-06 M and 11000 nM.
On to `Cc1c2c(nn1C)CNS(=O)(=O)CCCn1c(C(=O)O)c(CCCOc3cccc4cc(F)ccc34)c3ccc(Cl)c-2c31` (single isomer, unassigned; enantiomer 1) [Example 51, 4-chloro-7-{3-[(6-fluoronaphthalen-1-yl)oxy]propyl}-2,3-dimethyl-13,13-dioxo-10,11,12,13,14,15-hexahydro-2H-13lambda^6-pyrazolo[3′,4′:4,5][1,2,8]thiadiazacycloundecino[6,7,8-hi]indole-8-carboxylic acid (Enantiomer 1)], for which the IC50 stood at 0.96 nM in data set [1] and 9.8e-07 M in data set [3]. For the same compound, the response in data set [2] (3 hours) was half-maximal at 490 nM (EC50).
In the same order, the values of `CCc1c2c(nn1C)CN(C)S(=O)(=O)CCCn1c(C(=O)O)c(CCCOc3cccc4cc(F)ccc34)c3ccc(Cl)c-2c31` (single isomer, unassigned; enantiomer 1) [Example 36, (+)-4-chloro-3-ethyl-7-{3-[(6-fluoronaphthalen-1-yl)oxy]propyl}-2,14-dimethyl-13,13-dioxo-10,11,12,13,14,15-hexahydro-2H-13lambda^6-pyrazolo[3′,4′:4,5][1,2,8]thiadiazacycloundecino-[6,7,8-hi]indole-8-carboxylic acid (Enantiomer 1)] are 0.6 nM, 2.4e-07 M and 200 nM.
Consider `CCc1c2c(nn1C)CN(C)S(=O)(=O)CCCn1c(C(=O)O)c(CCCOc3cc(C)c(Cl)c(C)c3)c3ccc(F)c-2c31` (racemic) [Example 33, (rac)-1-(3-(4-Chloro-3,5-dimethylphenoxy)propyl)-12-ethyl-13-fluoro-8,11-dimethyl-5,6,9,11-tetrahydro-4H,8H-pyrazolo[3′,4′:4,5][1]thia[2,8]diazacycloundecino[6,7,8-hi]indole-2-carboxylic acid 7,7-dioxide], for which the IC50 was found to be 4.2 nM in data set [1] and 6.4e-06 M in data set [3] (Homo sapiens, SU-DHL10, 5 h). In data set [2] (Homo sapiens, SU-DHL10, 3 h), this compound registered an EC50 of 5100 nM.
